Measured values taken from patent publication US9452154B2, “Methods for treating HCV” (Gilead Sciences, Inc., priority 2010, dated 2016).
“And” between values parts separate entries of the source, which are not always exact repeats. Equal entries are not always repeated. Where two headings read alike, the source gives them in different places.

Assays:
HCV genotype 1a replicon [1] = experiment: Biological Example 3: HCV genotype 1a replicon assay, EC50; assay type: cell-based; conditions: Hepatitis C virus, 72 h, 3 days, read-out: EC50
[2] = Biological Example 3: cytotoxicity (calcein AM), CC50; assay type: cell-based; conditions: human, Huh-7 cells carrying a HCV genotype 1a replicon; HCV genotype 1a replicon cells; calcein AM
GT-1b Huh-lunet cells = experiment: Biological Example 4: antiviral combination studies with Compound 5 (MacSynergy II); assay type: cell-based, HCV; conditions: in combination with Compound 5, 1b replicon cells
HCV 1b replicon system = experiment: Biological Example 5: antiviral combination studies with Compound 6 (MacSynergy II); assay type: cell-based; conditions: in combination with Compound 6
[3] = system: Genotype 1b replicon cells; experiment: Biological Example 6: compound concentration required to suppress replicon RNA by 1-1.5 log over 6 days (QRT-PCR); assay type: cell-based, HCV; conditions: 6 day assay
Experimental: Flasks were incubated at 37° C., media and compounds were refreshed every two days. After 6 days of incubation the replicon cells were collected for RNA extraction and replicon RNA QRT-PCR analysis.

[4] = system: NS3 GT1a mutant replicons; assay type: cell-based, HCV
[5] = system: NS3 GT1b mutant replicons; assay type: cell-based, HCV
[6] = system: Genotype 1b replicon cells; experiment: Biological Example 6: compound combination replicon cure assay; conditions: after 6 days treatment, G418 for 14 days; Compound 6 4 pM, Compound 4 1000 nM, Compound 1 10 nM, Compound 3 26.25 nM
[7] = system: Huh-7 cells carrying a HCV genotype 1a replicon; experiment: Biological Example 3: cytotoxicity in combination studies (MacSynergy II); conditions: in combination with Compound 4
HCV genotype 1a replicon [8] = experiment: Biological Example 3: antiviral combination studies with Compound 4 (MacSynergy II); conditions: in combination with Compound 4
HCV 1b RLuc = experiment: microbe, parasite or virus in culture; assay type: cell-based; conditions: Hepatitis C virus, read-out: antiviral potency [EC50]
[9] = system: GT1b and GT1a mutant replicons; experiment: Biological Example 8: summary of cross resistance of mutant replicons; assay type: cell-based, HCV; conditions: all single NS3 PI-resistant mutants
Huh-luc replicon cells = experiment: Biological Example 5: cellular cytotoxicity (CellTiter-Glo); conditions: highest concentrations tested (column Concentration(s)); relative to untreated controls
Experimental: Replicon cells were seeded and treated with drugs as described for the antiviral combination studies above. After three day incubation at 37° C., the culture media was removed and cells were lysed and assayed for cytotoxicity using a CellTiter-Glo Luminescent Cell Viability Assay (Promega) according to the manufacturer's instructions. Relative Light Units were converted into percentages relative to the untreated controls (defined as 100%).

[10] = Drug-drug interaction: exposure on co-administration with Compound 2
[11] = mutant R155K + Y488H (first line, r20)
[12] = mutant R155K + Y488H (second line, r26)

## CC[C@@H]1C[C@]1(NC(=O)[C@@H]1C[C@@H](Oc2cc(-c3csc(NC(C)C)n3)nc3c(Cl)c(OCCN4CCOCC4)ccc23)CC1C(=O)[C@@H](NC(=O)O[C@@H]1C[C@@H]2C[C@@H]2C1)C(C)(C)C)C(=O)O (some centres unmarked) [Compound 3]
HCV genotype 1a replicon [1]
  EC50: 49 ± 18 nM
[2]
  CC50 at 3 days: > 22200 nM
GT-1b Huh-lunet cells
  Antagonism Volume: −2 ± 2 nM^2
  Interaction: Additive
  Synergy Volume: 19 ± 13 nM^2
HCV 1b replicon system
  Antagonism Volume: −0.1 ± 0.2 nM^2
  Interaction: Strong Synergy
  Synergy Volume: 132 nM^2 and 132 ± 44 nM^2
[3]
  Compound concentration able to induce replicon RNA 1-1.5 log drop: 26.25 nM
[4]; mutant A156T
  fold change in EC50 vs wild-type GT1a: >141 fold
[4]; mutant D168A
  fold change in EC50 vs wild-type GT1a: >300 fold
[4]; mutant D168E
  fold change in EC50 vs wild-type GT1a: 25.1 fold
[4]; mutant D168G
  fold change in EC50 vs wild-type GT1a: >138 fold
[4]; mutant D168H
  fold change in EC50 vs wild-type GT1a: >250 fold
[4]; mutant D168N
  fold change in EC50 vs wild-type GT1a: 20.5 fold
[4]; mutant D168V
  fold change in EC50 vs wild-type GT1a: >156 fold
[4]; mutant D168Y
  fold change in EC50 vs wild-type GT1a: >175 fold
[4]; mutant R155I
  fold change in EC50 vs wild-type GT1a: 0.9 fold
[4]; mutant R155K
  fold change in EC50 vs wild-type GT1a: >150 fold
[4]; mutant R155K + L31M
  fold change in EC50 vs wild-type GT1a: >100 fold
[4]; mutant R155K + L31M + Y448H
  fold change in EC50 vs wild-type GT1a: >145 fold
[4]; mutant R155K + M28T
  fold change in EC50 vs wild-type GT1a: >100 fold
[4]; mutant R155K + M28T + Y448H
  fold change in EC50 vs wild-type GT1a: 89.0 fold
[4]; mutant R155K + Q30H + Y448H
  fold change in EC50 vs wild-type GT1a: >130 fold
[4]; mutant R155K + Q30R
  fold change in EC50 vs wild-type GT1a: >100 fold
[4]; mutant R155K + Y93H
  fold change in EC50 vs wild-type GT1a: >100 fold
[4]; [11]
  fold change in EC50 vs wild-type GT1a: >130 fold
[4]; [12]
  fold change in EC50 vs wild-type GT1a: >100 fold
[4]; mutant R155M
  fold change in EC50 vs wild-type GT1a: 1.5 fold
[4]; mutant R155S
  fold change in EC50 vs wild-type GT1a: 4.0 fold
[4]; mutant R155T
  fold change in EC50 vs wild-type GT1a: 2.3 fold
[4]; mutant R155W
  fold change in EC50 vs wild-type GT1a: 32.1 fold
[4]; mutant R155k + Q30H
  fold change in EC50 vs wild-type GT1a: >100 fold
[5]; mutant R155L
  fold change in EC50 vs wild-type GT1b: 1.2 fold and 0.9 fold
[6]
  Uncured colony number: 989
[7]
  Antagonism Volume (cytotoxicity): 0 ± 0 nM^2%
  Interaction (cytotoxicity): Additivity (Additivity: ≦25 and >−25 nM^2%)
  Synergy Volume (cytotoxicity): 3 ± 5 nM^2%
HCV genotype 1a replicon [8]
  Antagonism Volume: −3 ± 2 nM^2%
  Synergy Volume: 26 ± 6 nM^2%

## COC(=O)N[C@H](C(=O)N1CC2(CC2)C[C@H]1c1ncc(-c2ccc3c(c2)C(F)(F)c2cc(-c4ccc5nc([C@@H]6[C@H]7CC[C@H](C7)N6C(=O)[C@@H](NC(=O)OC)C(C)C)[nH]c5c4)ccc2-3)[nH]1)C(C)C [Compound 6, (1-{3-[6-(9,9-Difluoro-7-{2-[5-(2-methoxycarbonylamino-3-methyl-butyryl)-5-aza-spiro[2.4]hept-6-yl]-3H-imidazol-4-yl}-9H-fluoren-2-yl)-1H-benzoimidazol-2-yl]-2-aza-bicyclo[2.2.1]heptane-2-carbonyl}-2-methyl-propyl)-carbamic acid methyl ester]
HCV 1b RLuc
  EC50: 0.0045 nM
HCV genotype 1a replicon [1]
  EC50: 0.033 ± 0.011 nM
[2]
  CC50 at 3 days: > 44400 nM
GT-1b Huh-lunet cells
  Antagonism Volume: 0 ± 0 nM^2
  Synergy Volume: 34 ± 19 nM^2
[3]
  Compound concentration able to induce replicon RNA 1-1.5 log drop: 0.004 nM
[4]; mutant A156T
  fold change in EC50 vs wild-type GT1a: 0.2 fold
[4]; mutant D168A
  fold change in EC50 vs wild-type GT1a: 1.1 fold
[4]; mutant D168E
  fold change in EC50 vs wild-type GT1a: 1.3 fold
[4]; mutant D168G
  fold change in EC50 vs wild-type GT1a: 0.8 fold
[4]; mutant D168H
  fold change in EC50 vs wild-type GT1a: 1.1 fold
[4]; mutant D168N
  fold change in EC50 vs wild-type GT1a: 1.2 fold
[4]; mutant D168V
  fold change in EC50 vs wild-type GT1a: 1.2 fold
[4]; mutant D168Y
  fold change in EC50 vs wild-type GT1a: 0.8 fold
[4]; mutant R155I
  fold change in EC50 vs wild-type GT1a: 0.5 fold
[4]; mutant R155K
  fold change in EC50 vs wild-type GT1a: 0.6 fold
[4]; mutant R155K + L31M
  fold change in EC50 vs wild-type GT1a: 96.9 fold
[4]; mutant R155K + L31M + Y448H
  fold change in EC50 vs wild-type GT1a: >330 fold
[4]; mutant R155K + M28T
  fold change in EC50 vs wild-type GT1a: 12.3 fold
[4]; mutant R155K + M28T + Y448H
  fold change in EC50 vs wild-type GT1a: 53.0 fold
[4]; mutant R155K + Q30H + Y448H
  fold change in EC50 vs wild-type GT1a: 55.0 fold
[4]; mutant R155K + Q30R
  fold change in EC50 vs wild-type GT1a: 85.3 fold
[4]; mutant R155K + Y93H
  fold change in EC50 vs wild-type GT1a: >3000 fold
[4]; [11]
  fold change in EC50 vs wild-type GT1a: 1.1 fold
[4]; [12]
  fold change in EC50 vs wild-type GT1a: 0.5 fold
[4]; mutant R155M
  fold change in EC50 vs wild-type GT1a: 0.3 fold
[4]; mutant R155S
  fold change in EC50 vs wild-type GT1a: 0.3 fold
[4]; mutant R155T
  fold change in EC50 vs wild-type GT1a: 0.3 fold
[4]; mutant R155W
  fold change in EC50 vs wild-type GT1a: 0.7 fold
[4]; mutant R155k + Q30H
  fold change in EC50 vs wild-type GT1a: 49.4 fold
[5]; mutant A156D
  fold change in EC50 vs wild-type GT1b: 0.4 fold
[5]; mutant A156G
  fold change in EC50 vs wild-type GT1b: 0.9 fold
[5]; mutant A156T
  fold change in EC50 vs wild-type GT1b: 0.4 fold
[5]; mutant A156V
  fold change in EC50 vs wild-type GT1b: 0.4 fold
[5]; mutant D168A
  fold change in EC50 vs wild-type GT1b: 0.8 fold
[5]; mutant D168E
  fold change in EC50 vs wild-type GT1b: 1.0 fold
[5]; mutant D168E + L31V + Y448H
  fold change in EC50 vs wild-type GT1b: >210 fold
[5]; mutant D168E + Y93H + Y448H
  fold change in EC50 vs wild-type GT1b: >613 fold
[5]; mutant D168E + Y448H
  fold change in EC50 vs wild-type GT1b: 0.7 fold
[5]; mutant D168G
  fold change in EC50 vs wild-type GT1b: 0.6 fold
[5]; mutant D168H
  fold change in EC50 vs wild-type GT1b: 1.2 fold
[5]; mutant D168H + C445F
  fold change in EC50 vs wild-type GT1b: 0.3 fold
[5]; mutant D168L + C445F
  fold change in EC50 vs wild-type GT1b: 0.4 fold
[5]; mutant D168N
  fold change in EC50 vs wild-type GT1b: 0.9 fold
[5]; mutant D168T
  fold change in EC50 vs wild-type GT1b: 0.8 fold
[5]; mutant D168V
  fold change in EC50 vs wild-type GT1b: 0.9 fold
[5]; mutant D168V + C445F
  fold change in EC50 vs wild-type GT1b: 0.4 fold
[5]; mutant D168V + L31V + Y448H
  fold change in EC50 vs wild-type GT1b: >126 fold
[5]; mutant D168V + Y93H + Y448H
  fold change in EC50 vs wild-type GT1b: >664 fold
[5]; mutant D168V + Y448H
  fold change in EC50 vs wild-type GT1b: 0.5 fold
[5]; mutant D168Y
  fold change in EC50 vs wild-type GT1b: 0.7 fold
[5]; mutant L31V + D168E
  fold change in EC50 vs wild-type GT1b: 228.7 fold
[5]; mutant L31V + D168V
  fold change in EC50 vs wild-type GT1b: 117.5 fold
[5]; mutant R155C
  fold change in EC50 vs wild-type GT1b: 0.9 fold
[5]; mutant R155G
  fold change in EC50 vs wild-type GT1b: 0.7 fold
[5]; mutant R155K
  fold change in EC50 vs wild-type GT1b: 2.3 fold
[5]; mutant R155L
  fold change in EC50 vs wild-type GT1b: 0.7 fold
[5]; mutant R155Q
  fold change in EC50 vs wild-type GT1b: 0.7 fold
[5]; mutant R155W
  fold change in EC50 vs wild-type GT1b: 0.4 fold
[5]; mutant Y93H + D168E
  fold change in EC50 vs wild-type GT1b: >570 fold
[5]; mutant Y93H + D168V
  fold change in EC50 vs wild-type GT1b: >1140 fold
[9]
  susceptibility of mutants: full susceptibility
Huh-luc replicon cells
  Cell Viability %: 99 ± 1%
[10]
  increase of exposure when combined with Compound 2: approximately 5 ×
[7]
  Antagonism Volume (cytotoxicity): 0 ± 0 nM^2%
  Interaction (cytotoxicity): Additivity (Additivity: ≦25 and >−25 nM^2%)
  Synergy Volume (cytotoxicity): 8 ± 4 nM^2%
HCV genotype 1a replicon [8]
  Antagonism Volume: −7 ± 7 nM^2%
  Interaction: Additivity (Additivity: ≦25 and >−25 nM^2%)
  Synergy Volume: 19 ± 17 nM^2%
